The target of data set [1] is T1, SLC26A11^ΔC (SLC26A11(ΔC)) (Homo sapiens, UniProt Q86WA9, E320Q).
T1 construct: C-terminal disordered 23 residues deleted (MD model residues 26-583); expressed in Trichoplusia ni cells by baculovirus; N-glycosylated at Asn-294; homodimer; DDM micelles (DSF), SoyPC/BMP proteoliposomes (transport), MSP1-E3D1 nanodiscs (cryo-EM)
T1 sequence (Q86WA9 1-583 E320Q): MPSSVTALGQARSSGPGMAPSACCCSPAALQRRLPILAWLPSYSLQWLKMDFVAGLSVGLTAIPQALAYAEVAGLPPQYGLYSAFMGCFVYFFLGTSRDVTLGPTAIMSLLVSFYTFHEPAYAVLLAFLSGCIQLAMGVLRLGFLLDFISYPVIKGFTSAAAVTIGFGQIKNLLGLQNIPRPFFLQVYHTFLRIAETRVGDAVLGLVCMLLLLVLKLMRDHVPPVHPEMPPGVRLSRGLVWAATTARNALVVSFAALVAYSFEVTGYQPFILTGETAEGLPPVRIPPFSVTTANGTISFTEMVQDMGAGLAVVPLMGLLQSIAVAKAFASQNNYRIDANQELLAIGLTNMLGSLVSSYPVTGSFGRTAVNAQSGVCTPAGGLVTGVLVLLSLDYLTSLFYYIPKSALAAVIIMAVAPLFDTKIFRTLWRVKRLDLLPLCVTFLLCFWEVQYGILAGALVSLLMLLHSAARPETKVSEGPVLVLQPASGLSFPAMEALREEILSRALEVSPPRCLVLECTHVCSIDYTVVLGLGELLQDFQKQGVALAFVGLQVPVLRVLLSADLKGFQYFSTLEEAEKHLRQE
Put plainly: differential scanning fluorimetry (nanoDSF), anion titration. The class given is binding. Background: Differential scanning fluorimetry follows unfolding on heating by fluorescence.

Data set [2] concerns the target T2, SLC26A11^ΔC (SLC26A11(ΔC)) (Homo sapiens, UniProt Q86WA9).
T2 construct: C-terminal disordered 23 residues deleted (MD model residues 26-583); expressed in Trichoplusia ni cells by baculovirus; N-glycosylated at Asn-294; homodimer; DDM micelles (DSF), SoyPC/BMP proteoliposomes (transport), MSP1-E3D1 nanodiscs (cryo-EM)
T2 sequence (Q86WA9 1-583): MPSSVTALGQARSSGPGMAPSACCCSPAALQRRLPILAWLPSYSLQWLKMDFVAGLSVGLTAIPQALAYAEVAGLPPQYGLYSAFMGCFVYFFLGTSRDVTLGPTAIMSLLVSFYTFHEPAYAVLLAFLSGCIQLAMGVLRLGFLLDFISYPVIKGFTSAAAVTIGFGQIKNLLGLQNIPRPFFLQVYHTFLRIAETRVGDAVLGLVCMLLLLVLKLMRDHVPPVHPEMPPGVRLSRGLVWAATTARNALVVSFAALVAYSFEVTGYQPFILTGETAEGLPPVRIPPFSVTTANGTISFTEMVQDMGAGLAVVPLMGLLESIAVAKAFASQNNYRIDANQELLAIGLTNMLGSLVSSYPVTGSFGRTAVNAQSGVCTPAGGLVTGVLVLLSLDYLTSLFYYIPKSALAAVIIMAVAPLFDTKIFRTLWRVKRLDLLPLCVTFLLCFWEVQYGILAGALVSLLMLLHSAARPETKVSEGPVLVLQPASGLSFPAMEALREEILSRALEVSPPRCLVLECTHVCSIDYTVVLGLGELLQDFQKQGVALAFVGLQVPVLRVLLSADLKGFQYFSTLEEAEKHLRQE
The data set is described as above. The class given is binding. The conditions noted are these: read-out: apparent KD.

Substrate in the data set “purified protein”: O=S(=O)(O)O
Kind of data set: purified protein. The class given is biochemical, Homo sapiens. The conditions noted are these: pH out 5.0, pH in 7.5, 50 mM internal chloride, 30 °C, labelled compound.

For `Cl` [chloride], the Kd is 8.8 ± 1.4 mM in data set [1] and 6 ± 1.4 mM in data set [2].

Take `O=S(=O)(O)O` [sulfate]: the Kd is 0.019 ± 0.004 mM in data set [1] and 0.057 ± 0.011 mM in data set [2].

B1: SLC26A11^ΔC (SLC26A11(ΔC)) (Homo sapiens) (protein)
chain: MPSSVTALGQARSSGPGMAPSACCCSPAALQRRLPILAWLPSYSLQWLKMDFVAGLSVGLTAIPQALAYAEVAGLPPQYGLYSAFMGCFVYFFLGTSRDVTLGPTAIMSLLVSFYTFHEPAYAVLLAFLSGCIQLAMGVLRLGFLLDFISYPVIKGFTSAAAVTIGFGQIKNLLGLQNIPRPFFLQVYHTFLRIAETRVGDAVLGLVCMLLLLVLKLMRDHVPPVHPEMPPGVRLSRGLVWAATTARNALVVSFAALVAYSFEVTGYQPFILTGETAEGLPPVRIPPFSVTTANGTISFTEMVQDMGAGLAVVPLMGLLESIAVAKAFASQNNYRIDANQELLAIGLTNMLGSLVSSYPVTGSFGRTAVNAQSGVCTPAGGLVTGVLVLLSLDYLTSLFYYIPKSALAAVIIMAVAPLFDTKIFRTLWRVKRLDLLPLCVTFLLCFWEVQYGILAGALVSLLMLLHSAARPETKVSEGPVLVLQPASGLSFPAMEALREEILSRALEVSPPRCLVLECTHVCSIDYTVVLGLGELLQDFQKQGVALAFVGLQVPVLRVLLSADLKGFQYFSTLEEAEKHLRQE
notes: C-terminal disordered 23 residues deleted (MD model residues 26-583); expressed in Trichoplusia ni cells by baculovirus; N-glycosylated at Asn-294; homodimer; DDM micelles (DSF), SoyPC/BMP proteoliposomes (transport), MSP1-E3D1 nanodiscs (cryo-EM)
On to B1, for which, in the data set “purified protein”, the Km (in general, the substrate concentration at which the rate is half of its maximum) amounted to 39.7 ± 5.5 µM.

Values taken from PMC13408680, “SLC26A11 is an atypical solute carrier with dual transport-channel function mediating lysosomal sulfate transport” (Nature Communications, 2026).
